Measurements as given in US8835378B2, “Multi-domain amphipathic helical peptides and methods of their use” (The United States of America as represented by the …, priority 2004, dated 2014).
“Also recorded” adds a separate entry of the source. Where a SMILES comes first, the peptide text is derived from it. [ ]: non-standard residue; d: D form.

Tests used:
control cells = assay: LDH release from control cells; assay type: cell-based, human; details: 40 μg/ml for 18 hours
Description: (§1) Cell fixation was performed by a 10 minute treatment with 3% paraformaldehyde in phosphate buffered saline (PBS), followed by three washes with blank media. Lactate dehydrogenase (LDH) release from cells into the media was measured enzymatically (Roche Diagnostics, Indianapolis, Ind.) and expressed, after subtraction of LDH released into blank media, as the percentage of total cell LDH. Total cell LDH was determined after cell solubilization with 1% Triton X-100.
(§2) Incubation of the cells with L-37pA and D-37pA at the maximum concentration and time used for the efflux studies (40 μg/ml for 18 hours) did, however, consistently result in the release of a small amount of LDH from both cell lines (control cells: L-37pA (6.1%±0.2), D-37pA (6.6%±0.1); ABCA1 cells: L-37pA (4.3%±0.04), D-37pA (5.7%±0.1)).

ABCA1 cells [1] = assay: LDH release from ABCA1 cells; assay type: cell-based, human; details: 40 μg/ml for 18 hours
Description: as §1, §2

ABCA1 cells [2] = assay: Two-step competitive binding of radiolabled L-37pA to ABCA1 cells; set-up: species or system human; details: 8 μM, the maximum concentration tested; 4° C.
Description: FIGS. 7A-7B are a pair of graphs illustrating the competitive binding of L-37pA peptide to ABCA1 transfected cells and control cells. ABCA1 cells (FIG. 7A) and control cells (FIG. 7B) were incubated for 3 hours at 4° C. with the indicated concentration of the competitor proteins [L-37pA (triangle), D-37pA (open square), apoA-I (closed circle), L2D-37pA (star), and L3D-37pA (open circle)] and were then washed and incubated for 1 hour at 4° C. with 1 μg/ml of radiolabled L-37pA peptide. Results are expressed as the mean of triplicates±1 SD.
The L-37pA peptide was labeled with ^125I using iodine monochloride. Confluent cells grown on 12-well plates were incubated for 3 hours at 4° C. with the indicated concentration of the unlabeled competitor peptide in αMEM media plus 10 mg/ml of BSA (FIG. 7). […] Cells were washed three times, and cell bound counts were determined after solubilization with 0.1 N NaOH.
A two-step sequential competitive binding assay was performed in order to prevent any potentially interfering interaction of the radiolabled peptide with the competitor proteins (Mendez et al., J. Clin. Invest. 94:1698-1705, 1994). The cells were first incubated with the competitor proteins for 3 hours, washed, and then the cell binding of the radiolabled L-37 peptide was measured. […]

[3] = test system: ABCA1 cells and control cells; assay: Cell morphology by light microscopy during efflux experiments; assay type: cell-based, human
[4] = test system: HeLa cells stably transfected with human ABCA1 cDNA (ABCA1 cells); assay: Cholesterol and phospholipid efflux from ABCA1 transfected cells; assay type: cell-based
Description: (§3) Percentage efflux was calculated after subtracting the radioactive counts in the blank media (αMEM plus 1 mg/ml of BSA), and expressed as the percent of total radioactive counts removed from the cells during the efflux period.
as §1

[5] = test system: Tangier disease fibroblast cell line with a truncated non-functional ABCA1 transporter; assay: Cholesterol efflux from Tangier disease fibroblasts; assay type: cell-based, human; details: 10 μg/ml, 18 hour
Description: (§4) FIG. 5 is a graph illustrating ABCA1-independent efflux of cholesterol from Tangier disease fibroblasts. Normal skin fibroblasts (open bars) and Tangier disease skin fibroblasts (solid bars) were examined for their ability to efflux cholesterol over an 18 hour period when treated with 10 μg/ml apoA-I (A), 10 μg/ml L-37pA (L), and 10 μg/ml D-37pA (D). Results are expressed as the mean of triplicates±1 SD.
(§5) In order to confirm that the residual lipid efflux from the control cells to L-37pA and D-37pA (see FIG. 1) was not due to a low level of endogenous ABCA1, a Tangier disease fibroblast cell line with a truncated non-functional ABCA1 transporter (Remaley et al., Proc. Natl. Acad. Sci. USA 96:12685-12690, 1999) was evaluated for lipid efflux (FIG. 5). […] Thromb. Vasc. Biol. 17:1813-1821, 1997.

[6] = test system: HeLa cells transfected with only a hygromycin-resistant control plasmid (control cells); assay: Cholesterol and phospholipid efflux from control cells; assay type: cell-based, human; details: for cholesterol and phospholipid efflux from control cells (in words): 18 hours
Description: as §3, §1

Normal skin fibroblasts = assay: Cholesterol efflux from normal skin fibroblasts; assay type: cell-based, human; details: 10 μg/ml, 18 hour
Description: as §4, §5

Row | Compound | LDH release from control cells (percentage of total cell LDH) (control cells) | LDH release from ABCA1 cells (percentage of total cell LDH) (ABCA1 cells [1]) | binding of labeled L-37pA to ABCA1 cells blocked by competitor (ABCA1 cells [2]) | effect on cell morphology [3] | time at which cholesterol efflux from ABCA1 cells was first detectable ([4]; 10 μg/ml) [h] | effect of fixation of ABCA1 cells on cholesterol efflux (in words) ([4]; 10 μg/ml, 18 hours, fixation with 3% paraformaldehyde) | cholesterol and phospholipid efflux from ABCA1 cells (in words) ([4]; 18 hours) | protein concentration at which lipid efflux began to show saturation ([4]; 18 hours) [µg/mL] | molar concentration at which lipid efflux began to show saturation ([4]; corresponds to 10 μg/ml) [µM] | cholesterol efflux from Tangier disease fibroblasts [5] | cholesterol efflux time course from control cells (in words) ([6]; 10 μg/ml, 30 hour efflux period) | cholesterol and phospholipid efflux from control cells (in words) [6] | cholesterol and phospholipid efflux from control cells (in words) ([6]; listed as apoA-1) | cholesterol efflux from normal fibroblasts (Normal skin fibroblasts)
1 | CC(C)C[C@@H](NC(=O)[C@@H](Cc1c[nH]c2ccccc12)NC(=O)[C@H](N)CC(=O)O)C(=O)N[C@H](CCCCN)C(=O)N[C@H](C)C(=O)N[C@H](Cc1ccccc1)C(=O)N[C@H](Cc1ccc(O)cc1)C(=O)N[C@H](CC(=O)O)C(=O)N[C@H](CCCCN)C(=O)N[C@@H](C(=O)N[C@H](C)C(=O)N[C@H](CCC(=O)O)C(=O)N[C@H](CCCCN)C(=O)N[C@H](CC(C)C)C(=O)N[C@H](CCCCN)C(=O)N[C@H](CCC(=O)O)C(=O)N[C@H](C)C(=O)N[C@H](Cc1ccccc1)C(=O)N1CCC[C@@H]1C(=O)N[C@H](CC(=O)O)C(=O)N[C@H](Cc1c[nH]c2ccccc12)C(=O)N[C@H](CC(C)C)C(=O)N[C@H](CCCCN)C(=O)N[C@H](C)C(=O)N[C@H](Cc1ccccc1)C(=O)N[C@H](Cc1ccc(O)cc1)C(=O)N[C@H](CC(=O)O)C(=O)N[C@H](CCCCN)C(=O)N[C@@H](C(=O)N[C@H](C)C(=O)N[C@H](CCC(=O)O)C(=O)N[C@H](CCCCN)C(=O)N[C@H](CC(C)C)C(=O)N[C@H](CCCCN)C(=O)N[C@H](CCC(=O)O)C(=O)N[C@H](C)C(=O)N[C@H](Cc1ccccc1)C(=O)O)C(C)C)C(C)C [D-37pA] (H-[dD][dW][dL][dK][dA][dF][dY][dD][dK][dV][dA][dE][dK][dL][dK][dE][dA][dF][dP][dD][dW][dL][dK][dA][dF][dY][dD][dK][dV][dA][dE][dK][dL][dK][dE][dA][dF]-OH; N-terminus and C-terminus assumed) | 6.6%±0.1 | 5.7%±0.1 |  |  |  |  |  |  |  |  |  |  |  | 
2 | CC(C)C[C@H](NC(=O)[C@H](Cc1c[nH]c2ccccc12)NC(=O)[C@H](CC(=O)O)NC(=O)[C@@H]1CCCN1C(=O)[C@H](Cc1ccccc1)NC(=O)[C@H](C)NC(=O)[C@H](CCC(=O)O)NC(=O)[C@H](CCCCN)NC(=O)[C@H](CC(C)C)NC(=O)[C@H](CCCCN)NC(=O)[C@H](CCC(=O)O)NC(=O)[C@H](C)NC(=O)[C@@H](NC(=O)[C@H](CCCCN)NC(=O)[C@H](CC(=O)O)NC(=O)[C@H](Cc1ccc(O)cc1)NC(=O)[C@H](Cc1ccccc1)NC(=O)[C@H](C)NC(=O)[C@H](CCCCN)NC(=O)[C@H](CC(C)C)NC(=O)[C@H](Cc1c[nH]c2ccccc12)NC(=O)[C@@H](N)CC(=O)O)C(C)C)C(=O)N[C@@H](CCCCN)C(=O)N[C@@H](C)C(=O)N[C@@H](Cc1ccccc1)C(=O)N[C@@H](Cc1ccc(O)cc1)C(=O)N[C@@H](CC(=O)O)C(=O)N[C@@H](CCCCN)C(=O)N[C@H](C(=O)N[C@@H](C)C(=O)N[C@@H](CCC(=O)O)C(=O)N[C@@H](CCCCN)C(=O)N[C@@H](CC(C)C)C(=O)N[C@@H](CCCCN)C(=O)N[C@@H](CCC(=O)O)C(=O)N[C@@H](C)C(=O)N[C@@H](Cc1ccccc1)C(=O)O)C(C)C [L-37pA] (H-DWLKAFYDKVAEKLKEAFPDWLKAFYDKVAEKLKEAF-OH; N-terminus and C-terminus assumed) | 6.1%±0.2 | 4.3%±0.04 |  |  |  |  |  |  |  |  |  |  |  | 
3 | apolipoprotein A-I [apoA-I] |  |  | approximately 30% | no morphologic effect was observed | 2 | completely blocked | do so after transfection with ABCA1 | ~10 | 0.36 | did not efflux significant amounts of cholesterol | no significant increase above background | do not efflux significant amounts of cholesterol and phospholipid; also recorded: unable | did not cause lipid efflux from control cells | effluxed cholesterol
